In patent US12630528B2, “Amino aryl derivative useful as diacylglycerol acyltransferase 2 inhibitor and use thereof” (LG CHEM, LTD., priority 2019, dated 2026):

Target: T1, human DGAT2 (Homo sapiens, UniProt Q96PD7)
T1 construct: FLAG (DYKDDDDK); made in house; host or cells: Sf-21 insect cells (BacPAK baculovirus system); membrane fraction used
T1 sequence (Q96PD7 1-388): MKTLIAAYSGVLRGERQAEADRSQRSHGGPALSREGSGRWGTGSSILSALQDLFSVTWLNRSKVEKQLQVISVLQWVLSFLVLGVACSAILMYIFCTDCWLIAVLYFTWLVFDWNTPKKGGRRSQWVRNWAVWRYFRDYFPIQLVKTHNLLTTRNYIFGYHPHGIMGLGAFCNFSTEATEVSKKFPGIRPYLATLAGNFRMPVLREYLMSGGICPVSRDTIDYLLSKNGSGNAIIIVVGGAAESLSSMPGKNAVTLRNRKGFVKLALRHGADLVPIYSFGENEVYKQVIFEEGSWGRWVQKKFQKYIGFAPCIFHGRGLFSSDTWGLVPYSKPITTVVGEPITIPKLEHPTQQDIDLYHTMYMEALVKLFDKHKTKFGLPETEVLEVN
Assay: DGAT2 enzyme activity inhibition, Phospholipid FlashPlate SPA
Type: biochemical
Conditions: recombinant human DGAT2 membrane protein from Sf-21 cells; inhibition of [14C]-TG production; 37° C.
Summary of the method: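 Sf-21 membranes expressing recombinant human DGAT2 (2 μg) preincubated with compound (3 nM–10 μM, 1% DMSO) and 50 μM 1,2 sn-oleoyl glycerol, 20 min at 37 °C, then 1 μM [14C]oleoyl-CoA for 15 min. [14C]-TG counted by SPA; inhibition as % of untreated.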

Structure (SMILES)	IC50 [µM]
CCOc1ccccc1O[C@@H]1CCCN(c2ncc(C(F)(F)F)c(Nc3cccc(-c4cccc(CC(C)(C)C(=O)O)c4)n3)n2)C1 [Example 70, (R)-3-(3-(6-((2-(3-(2-ethoxyphenoxy)piperidin-1-yl)-5-(trifluoromethyl)pyrimidin-4-yl)amino)pyridin-2-yl)phenyl)-2,2-dimethylpropanoic Acid]	> 10
CCOc1ccccc1O[C@@H]1CCCN(c2cncc(Nc3cccc(Oc4ccc(C(C)(C)C(=O)O)cc4)n3)n2)C1 [Example 93, (R)-2-(4-((6-((6-(3-(2-ethoxyphenoxy)piperidin-1-yl)pyrazin-2-yl)amino)pyridin-2-yl)oxy)phenyl)-2-methylpropanoic Acid]	0.17
CCOc1cccnc1O[C@@H]1CCCN(c2cncc(Nc3nccc(-c4ccc(CC(C)(C)C(=O)O)cc4)n3)n2)C1 [Example 154, (R)-3-(4-(2-((6-(3-((3-ethoxypyridin-2-yl)oxy)piperidin-1-yl)pyrazin-2-yl)amino)pyrimidin-4-yl)phenyl)-2,2-dimethylpropanoic Acid]	0.18
CCOc1ccccc1O[C@@H]1CCCN(c2cncc(Nc3ccc(C(C)(C)C(=O)O)cn3)n2)C1 [Example 49]	> 10
CCOc1ccccc1O[C@@H]1CCCN(c2cncc(Nc3nccc(-c4cccc(C(C)(C)C(=O)O)c4)n3)n2)C1 [Example 141, (R)-2-(3-(2-((6-(3-(2-ethoxyphenoxy)piperidin-1-yl)pyrazin-2-yl)amino)pyrimidin-4-yl)phenyl)-2-methylpropanoic Acid]	1.6
CCOc1ccccc1O[C@@H]1CCCN(c2cncc(Nc3nccc(-c4cccc(C(=O)O)n4)n3)n2)C1 [Example 139, (R)-6-(2-((6-(3-(2-ethoxyphenoxy)piperidin-1-yl)pyrazin-2-yl)amino)pyrimidin-4-yl)picolinic Acid]	> 10
CCOc1cccnc1O[C@@H]1CCCN(c2cncc(Nc3nccc(-c4cccc(C(C)(C)C(=O)O)c4)n3)n2)C1 [Example 142, (R)-2-(3-(2-((6-(3-((3-ethoxypyridin-2-yl)oxy)piperidin-1-yl)pyrazin-2-yl)amino)pyrimidin-4-yl)phenyl)-2-methylpropanoic Acid]	0.38
CCOc1ccccc1O[C@@H]1CCCN(c2cncc(Nc3cccc(N4CCC[C@H](OCC(=O)O)C4)n3)n2)C1 [Example 59]	3.7
CCOc1cccnc1O[C@@H]1CCCN(c2ccnc(Nc3nccc(C(C)(C)C(=O)O)n3)n2)C1 [Example 116]	0.41
CCOc1cccnc1O[C@@H]1CCCN(c2cncc(Nc3nccc(-c4ccc(CC(=O)O)cc4)n3)n2)C1 [Example 152, (R)-2-(4-(2-((6-(3-((3-ethoxypyridin-2-yl)oxy)piperidin-1-yl)pyrazin-2-yl)amino)pyrimidin-4-yl)phenyl)acetic Acid]	0.81
CCOc1cccnc1O[C@@H]1CCCN(c2cncc(Nc3ccc(F)c(-c4cccc(OC(C)(C)C(=O)O)c4)n3)n2)C1 [Example 105, (R)-2-(3-(6-((6-(3-((3-ethoxypyridin-2-yl)oxy)piperidin-1-yl)pyrazin-2-yl)amino)-3-fluoropyridin-2-yl)phenoxy)-2-methylpropanoic Acid]	0.5
CCOc1ccccc1O[C@@H]1CCCN(c2cncc(Nc3cccc(-c4ccc(NCC(=O)O)cc4)n3)n2)C1 [Example 73, (R)-(4-(6-((6-(3-(2-ethoxyphenoxy)piperidin-1-yl)pyrazin-2-yl)amino)pyridin-2-yl)phenyl)glycine]	0.89
CCOc1ccccc1O[C@@H]1CCCN(c2nccc(Nc3cccc(-c4cccc(CC(C)(C)C(=O)O)c4)n3)n2)C1 [Example 66, (R)-3-(3-(6-((2-(3-(2-ethoxyphenoxy)piperidin-1-yl)pyrimidin-4-yl)amino)pyridin-2-yl)phenyl)-2,2-dimethylpropanoic Acid]	3.5
CCOc1ccccc1O[C@@H]1CCCN(c2cncc(Nc3nccc(N4CCC(C(=O)O)CC4)n3)n2)C1 [Example 123, (R)-1-(2-((6-(3-(2-ethoxyphenoxy)piperidin-1-yl)pyrazin-2-yl)amino)pyrimidin-4-yl)piperidine-4-carboxylic Acid]	5.5
CCOc1cccnc1O[C@@H]1CCCN(c2cncc(Nc3cccc(-c4ccc(OC(C)(C)C(=O)O)cc4)n3)n2)C1 [Example 83, (R)-2-(4-(6-((6-(3-((3-ethoxypyridin-2-yl)oxy)piperidin-1-yl)pyrazin-2-yl)amino)pyridin-2-yl)phenoxy)-2-methylpropanoic Acid]	0.5
CCOc1ccccc1O[C@@H]1CCCN(c2cncc(Nc3nccc(N4CCC[C@@H](C(=O)O)C4)n3)n2)C1 [Example 121, (R)-1-(2-((6-((R)-3-(2-ethoxyphenoxy)piperidin-1-yl)pyrazin-2-yl)amino)pyrimidin-4-yl)piperidine-3-carboxylic Acid]	0.59
CCOc1cccnc1O[C@@H]1CCCN(c2cncc(Nc3cccc(Oc4ccc(C(C)(C)C(=O)O)cc4)n3)n2)C1 [Example 94, (R)-2-(4-((6-((6-(3-((3-ethoxypyridin-2-yl)oxy)piperidin-1-yl)pyrazin-2-yl)amino)pyridin-2-yl)oxy)phenyl)-2-methylpropanoic Acid]	0.23
CCOc1ccccc1O[C@@H]1CCCN(c2cncc(Nc3nc(-c4cc(CC(C)(C)C(=O)O)ccc4F)ccc3F)n2)C1 [Example 107, (R)-3-(3-(6-((6-(3-(2-ethoxyphenoxy)piperidin-1-yl)pyrazin-2-yl)amino)-5-fluoropyridin-2-yl)-4-fluorophenyl)-2,2-dimethylpropanoic Acid]	0.26
CCOc1ccccc1O[C@@H]1CCCN(c2cncc(Nc3nccc(-c4cccc(CCC(=O)O)c4)n3)n2)C1 [Example 145, (R)-3-(3-(2-((6-(3-(2-ethoxyphenoxy)piperidin-1-yl)pyrazin-2-yl)amino)pyrimidin-4-yl)phenyl)propanoic Acid]	1.7
CCOc1ccccc1O[C@@H]1CCCN(c2cncc(Nc3cc(-c4ccccc4)ccn3)n2)C1 [Example 41, (R)-6-(3-(2-ethoxyphenoxy)piperidin-1-yl)-N-(4-phenylpyridin-2-yl)pyrazin-2-amine]	0.6
CCOc1ccccc1O[C@@H]1CCCN(c2nc(Nc3cccc(-c4cccc(CC(C)(C)C(=O)O)c4)n3)ncc2C(F)(F)F)C1 [Example 71, (R)-3-(3-(6-((4-(3-(2-ethoxyphenoxy)piperidin-1-yl)-5-(trifluoromethyl)pyrimidin-2-yl)amino)pyridin-2-yl)phenyl)-2,2-dimethylpropanoic Acid]	0.67
CCOc1ccccc1O[C@@H]1CCCN(c2cncc(Nc3nccc(N4CCCC(C(=O)O)C4)n3)n2)C1 (stereo partly drawn) [Example 120, 1-(2-((6-((R)-3-(2-ethoxyphenoxy)piperidin-1-yl)pyrazin-2-yl)amino)pyrimidin-4-yl)piperidine-3-carboxylic Acid]	0.89
CCOc1ccccc1O[C@@H]1CCCN(c2cncc(Nc3ccccn3)n2)C1 [Example 31, (R)-6-(3-(2-ethoxyphenoxy)piperidin-1-yl)-N-(pyridin-2-yl)pyrazin-2-amine]	0.13
CCOc1ccccc1O[C@@H]1CCCN(c2cncc(Nc3nccc(-c4cccc(CC(C)(C)C(=O)O)c4)n3)n2)C1 [Example 146, (R)-3-(3-(2-((6-(3-(2-ethoxyphenoxy)piperidin-1-yl)pyrazin-2-yl)amino)pyrimidin-4-yl)phenyl)-2,2-dimethylpropanoic Acid]	0.39
